The record followed here is patent US20170112940A1, “Modified Collagen Hybridizing Peptides And Uses Thereof” (University of Utah Research Foundation, priority 2015, published 2017).

Data set [1] can be described thus: Melting temperature (melting curve) of the peptides in 1× PBS. Format: physicochemical. The following applies: FIG. 1. As to the method: The sample concentration tested is 200 uM. 7 is Ac-GPO-GPO-GPO-GPO-GPO-GPO-GPO (This is positive control). 7-1azGly is Ac-GPO-GPO-GPO-azGlyPO-GPO-GPO-GPO. 7-2azGly is Ac-GPO-GPO-azGlyPO-GPO-azGlyPO-GPO-GPO. Melting Temperature of 7 is 54° C. Melting Temperature of 7-1azGly is 65° C. Melting Temperature of 7-2azGly is 77° C.

The next data set deals with Denatured Collagen. Description: Fluorescent staining of SDS-PAGE, denatured collagen lanes. As to conditions: SDS-PAGE stained with 35 μM peptide, 5 ug and 10 ug denatured collagen (lanes 3 and 4), FIG. 4. Format: binding. As to the method: (§1) FIGS. 4A and 4B show A) Fluorescent image of SDS-PAGE stained with 35 μM of CFG3(GPO)3AzGPO(GPO)3; B) SDS-PAGE stained with Commassie Blue. Lane 1: MW marker, Lane 2: 50 ug BSA, Lane 3: 5 ug Denatured Collagen (col), Lane 4: 10 ug Denatured Collagen (col). Commasie blue (4B) stains collagen (Lanes 3 and 4) as well as BSA (lane 2).

The test system of a further data set is gelatin. Description: Gelatin binding: peptide remaining on crosslinked gelatin film after binding and washing. The following applies: FIG. 3. The procedure:
10: 10 μM added to crosslinked gelatin gel. […] 7 is CF-GGG-GPO-GPO-GPO-GPO-GPO-GPO-GPO (positive control). […] 7-2azGly is CF-GGG-GPO-GPO-azGlyPO-GPO-azGlyPO-GPO-GPO. Random9 is Scramble sequence of CF-GGG-(GPO)9 The sequence is CF-GGG-PGO-GPG-POP-OGO-GOP-PGO-OPG-GOO-PPG. (negative control).

For another data set, the target named is BSA (Bos taurus, UniProt P02769). Description: Fluorescent staining of SDS-PAGE, BSA lane. Format: binding. As to conditions: SDS-PAGE stained with 35 μM peptide, 50 ug BSA (lane 2), FIG. 4. The procedure:
as §1

The mark [2] stands for this setting: listed as CFG3(GPO)3AzGPO(GPO)3.

BSA, sequence (P02769 25-607): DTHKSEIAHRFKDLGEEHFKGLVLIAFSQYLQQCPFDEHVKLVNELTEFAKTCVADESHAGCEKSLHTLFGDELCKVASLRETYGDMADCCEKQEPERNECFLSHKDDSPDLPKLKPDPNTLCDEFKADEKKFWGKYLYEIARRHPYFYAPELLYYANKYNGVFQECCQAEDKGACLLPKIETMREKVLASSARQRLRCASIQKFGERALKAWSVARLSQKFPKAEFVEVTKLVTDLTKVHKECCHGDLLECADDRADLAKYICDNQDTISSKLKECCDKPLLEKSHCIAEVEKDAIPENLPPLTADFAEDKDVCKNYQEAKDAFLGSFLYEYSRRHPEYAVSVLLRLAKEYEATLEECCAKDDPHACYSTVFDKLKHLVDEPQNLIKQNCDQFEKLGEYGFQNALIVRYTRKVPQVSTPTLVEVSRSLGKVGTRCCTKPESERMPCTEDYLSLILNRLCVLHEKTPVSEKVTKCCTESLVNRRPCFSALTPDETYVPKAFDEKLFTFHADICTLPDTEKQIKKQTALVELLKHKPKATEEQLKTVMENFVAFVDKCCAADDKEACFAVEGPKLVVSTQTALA

“Ac-GPO-GPO-GPO-azGlyPO-GPO-GPO-GPO [7-1azGly]”: the “triple helical structure indicated by sigmoidal shape of the melting curve” value in data set [1] is given as “has triple helical structure”.
For the substance “Ac-GPO-GPO-azGlyPO-GPO-azGlyPO-GPO-GPO [7-2azGly]”, the “triple helical structure indicated by sigmoidal shape of the melting curve” value in data set [1] is “has triple helical structure”.
On to “CF-GGG-GPO-GPO-GPO-azGlyPO-GPO-GPO-GPO [7-1azGly]”, for which the figures for the “staining of / binding to denatured collagen” value with Denatured Collagen (listed as Aza-CHP) and in the data set with Denatured Collagen (setting [2]) were “binds to denatured collagen” and “stains only collagen”, respectively. Besides, in the data set on gelatin, the “binding affinity to gelatin (comparison in words)” value was “much higher than GPO7”. The “staining of / binding to denatured BSA” value at BSA (listed as Aza-CHP) is “does not bind to denatured BSA”; on BSA (setting [2]), “almost no signal from lane 2”.
On to “CF-GGG-GPO-GPO-azGlyPO-GPO-azGlyPO-GPO-GPO [7-2azGly]”, for which the “binding affinity to gelatin (comparison in words)” value in the data set on gelatin is given as “further increases the binding affinity to gelatin”.
